Some results are limits rather than exact numbers.

The text below walks through data of ChEMBL document CHEMBL5614384, “Synthesis and antiproliferative activity of (-)-cleistenolide, (6S)-cleistenolide and 4-substituted cleistenolide analogues” (Bioorg Med Chem, 2024).

The subject of series [1] is K562. Description: Antiproliferative activity against human K562 cells assessed as inhibition of cell growth incubated for 72 hrs by MTT assay. Format: functional, cell-based. The settings on record: K562, 72 h.
A short description of series [2]: (§1) Cytotoxicity against human MRC5 cells assessed as inhibition of cell growth incubated for 72 hrs by MTT assay. To be noted: human, MRC5 cells. Format: toxicity, cell-based.
In a further series the test system is Jurkat. Kind of series: Antiproliferative activity against human Jurkat cells assessed as inhibition of cell growth incubated for 72 hrs by MTT assay. Format: functional, cell-based. A general note: Tetrazolium dyes change colour on reduction, which living cells bring about.
For a further series, the system named is HL-60. Description: Antiproliferative activity against human HL-60 cells assessed as inhibition of cell growth incubated for 72 hrs by MTT assay. It counts as functional, cell-based. The settings on record: HL-60, 72 h.
Series [3] concerns Raji. Kind of series: Antiproliferative activity against human Raji cells assessed as inhibition of cell growth incubated for 72 hrs by MTT assay. It counts as functional, cell-based.
Series [4] has as its system HeLa. Description: Antiproliferative activity against human HeLa cells assessed as inhibition of cell growth incubated for 72 hrs by MTT assay. Format: functional, cell-based.
The subject of series [5] is HeLa. Description: Potency index, ratio of cleistenolide IC50 to test compound IC50 for antiproliferative activity against human HeLa cells assessed as inhibition of cell growth incubated for 72 hrs by MTT assay. Format: functional.
Series [6] concerns MCF7. Description: Antiproliferative activity against estrogen receptor positive human MCF7 cells assessed as inhibition of cell growth incubated for 72 hrs by MTT assay. Format: functional, cell-based. To be noted: MCF7, 72 h.
For another series, the system named is MDA-MB-231. Kind of series: Antiproliferative activity against estrogen receptor negative human MDA-MB-231 cells assessed as inhibition of cell growth incubated for 72 hrs by MTT assay. Format: functional, cell-based. The settings on record: MDA-MB-231, 72 h.
The subject of series [7] is A549. Kind of series: Antiproliferative activity against human A549 cells assessed as inhibition of cell growth incubated for 72 hrs by MTT assay. It counts as functional, cell-based. To be noted: A549, 72 h.
Series [8] relates to K562. Kind of series: Potency index, ratio of cleistenolide IC50 to test compound IC50 for antiproliferative activity against human K562 cells assessed as inhibition of cell growth incubated for 72 hrs by MTT assay. It counts as functional.
Series [9] relates to Raji. Kind of series: Potency index, ratio of cleistenolide IC50 to test compound IC50 for antiproliferative activity against human Raji cells assessed as inhibition of cell growth incubated for 72 hrs by MTT assay. It counts as functional.
The subject of a further series is MRC5. The series is described as §1. Format: toxicity, cell-based. The settings on record: mrc5.
Series [10] deals with MCF7. Kind of series: Potency index, ratio of cleistenolide IC50 to test compound IC50 for antiproliferative activity against human MCF7 cells assessed as inhibition of cell growth incubated for 72 hrs by MTT assay. It counts as functional.
In series [11] the test system is A549. Kind of series: Potency index, ratio of cleistenolide IC50 to test compound IC50 for antiproliferative activity against human A549 cells assessed as inhibition of cell growth incubated for 72 hrs by MTT assay. Format: functional.
For series [12], the system named is A549. Kind of series: Potency index, ratio of doxorubicin IC50 to test compound IC50 for antiproliferative activity against human A549 cells assessed as inhibition of cell growth incubated for 72 hrs by MTT assay. It counts as functional.

As to `CC(=O)O[C@H](COC(=O)c1ccccc1)[C@H]1OC(=O)C=C[C@H]1O[Si](c1ccccc1)(c1ccccc1)C(C)(C)C`, the concentration for half-maximal inhibition (IC50) – broadly, the midpoint of a concentration-inhibition curve – in the series with K562 [1] is 5.85 µM; in the series on Jurkat, 19.7 µM; in the series with HL-60, 5.64 µM; in the series on Raji [3], 25.1 µM; in the series on HeLa [4] it was 3.35 µM; with MCF7 [6], 9.39 µM. Moreover, the IC50 in the series with MDA-MB-231 was 8.36 µM; in the series with A549 [7], 30.6 µM. Further, the half-maximal inhibitory concentration (IC50) at 72 h in [2] is over 100 µM. The “Ratio IC50” value in the series on HeLa [5] is listed as over 2.

For `O=C1C=C[C@@H](OCc2ccccc2)[C@@H]([C@@H](COC(=O)c2ccccc2)OCc2ccccc2)O1`, the 50% inhibitory concentration (IC50) worked out at 0.67 µM in the series with K562 [1]; 12 µM with Jurkat; 3.34 µM in the series on HL-60; 19.2 µM in the series on Raji [3]; 8.3 µM in the series with HeLa [4]; 5.9 µM in the series on MCF7 [6]. In addition, the half-maximal inhibitory concentration (IC50) is 19.2 µM in the series on MDA-MB-231 and 12.9 µM with A549 [7]. Moreover, in series [2], the 50% inhibitory concentration (IC50) at 72 h was over 100 µM. Moreover, in the series with K562 [8], the “Ratio IC50” value was over 10.

`COc1ccc(/C=C/C(=O)O[C@@H]2C=CC(=O)O[C@@H]2[C@@H](COC(=O)c2ccccc2)OC(C)=O)cc1`: the concentration for half-maximal inhibition (IC50) in the series with K562 [1] came out at 1.28 µM; in the series on Jurkat, 24.1 µM; in the series with HL-60 it was 15.3 µM; with Raji [3], 25.7 µM; in the series on HeLa [4], 15.6 µM; in the series on MCF7 [6] it was 12.8 µM. In addition, the values for the 50% inhibitory concentration (IC50) in the series on MDA-MB-231 and in the series on A549 [7] were 26.6 µM and 41.6 µM, respectively. In addition, the IC50 at 72 h in series [2] is over 100 µM. Moreover, the “Ratio IC50” value in the series with K562 [8] is reported as 5.

With `CC(=O)OC[C@@H](O)[C@H]1OC(=O)C=C[C@H]1O`, the IC50 is 1.18 µM in the series with K562 [1]; 17.5 µM with Jurkat; 9.62 µM in the series on HL-60; 19.8 µM with Raji [3]; 5.36 µM in the series with HeLa [4]; 4.58 µM in the series on MCF7 [6]. Also, the IC50 in the series with MDA-MB-231 came to 45.6 µM; in the series with A549 [7], 12.5 µM. Moreover, the IC50 at 72 h in series [2] is over 100 µM. In the series on K562 [8], the “Ratio IC50” value is recorded as 5.

`CC(=O)O[C@H](COC(=O)c1ccccc1)[C@H]1OC(=O)C=C[C@H]1OC(=O)/C=C/c1ccccc1`: the IC50 was found to be 0.76 µM in the series with K562 [1]; 11.8 µM in the series with Jurkat; 6.36 µM in the series with HL-60; 3.3 µM in the series on Raji [3]; 7 µM in the series on HeLa [4]; 22.5 µM in the series on MCF7 [6]. Besides, the IC50 with MDA-MB-231 was 4.29 µM; in the series with A549 [7] it was 8.55 µM. Besides, in [2], the 50% inhibitory concentration (IC50) at 72 h is over 100 µM. For the same molecule, the “Ratio IC50” value in the series on Raji [9] and with K562 [8] was over 10 throughout.

As for `CC(=O)O[C@H](COC(=O)c1ccccc1)[C@H]1OC(=O)C=C[C@H]1OS(C)(=O)=O`, the IC50 was 8.78 µM in the series with K562 [1]; over 100 µM with MRC5; 15.2 µM in the series on Jurkat; 3.63 µM in the series on HL-60; 17 µM in the series with Raji [3]; 14.2 µM with HeLa [4]. Further, the concentration for half-maximal inhibition (IC50) in the series on MCF7 [6] stood at 3.26 µM; in the series with MDA-MB-231 it was 14.9 µM; with A549 [7] it was 11.3 µM. In the series on MCF7 [10], the “Ratio IC50” value is listed as about 8.

As for `CC(=O)O[C@H](COC(=O)c1ccccc1)[C@H]1OC(=O)C=C[C@H]1OC(=O)/C=C/c1ccc([N+](=O)[O-])cc1`, the IC50 in the series on K562 [1] was 5.82 µM; in the series on Jurkat it was 23.5 µM; in the series on HL-60, 24.5 µM; with Raji [3], 25 µM; in the series with HeLa [4], 13.3 µM; with MCF7 [6], 21.3 µM. Moreover, the IC50 in the series on MDA-MB-231 is 15.5 µM; in the series with A549 [7], 2.55 µM. The 50% inhibitory concentration (IC50) at 72 h in series [2] is over 100 µM. In addition, the results for the “Ratio IC50” value with A549 [11] and with A549 [12] were over 6 and about 2, respectively.

With `CC(=O)OC[C@@H](OC(C)=O)[C@H]1OC(=O)C=C[C@H]1OCc1ccccc1`, the 50% inhibitory concentration (IC50) with K562 [1] is 1.12 µM; in the series with Jurkat it was 19 µM; with HL-60 it was 1.39 µM; in the series on Raji [3] it was 11.7 µM; in the series with HeLa [4] it was 6.17 µM; in the series on MCF7 [6], 15.5 µM. For the same molecule, the 50% inhibitory concentration (IC50) came to 16.1 µM in the series on MDA-MB-231 and 23.2 µM in the series with A549 [7]. Further, in [2], the IC50 at 72 h is over 100 µM. The “Ratio IC50” value in the series with K562 [8] turned out to be 5.

For `O=C1C=C[C@@H](O)[C@@H]([C@@H](O)COC(=O)c2ccccc2)O1`, the IC50 turned out to be 1.23 µM with K562 [1]; 15.3 µM in the series with Jurkat; 12.3 µM with HL-60; 11.3 µM in the series with Raji [3]; 4.69 µM in the series with HeLa [4]; 10.5 µM with MCF7 [6]. Besides, the IC50 in the series on MDA-MB-231 worked out at 14.1 µM; with A549 [7] it was 19.9 µM. For the same molecule, the concentration for half-maximal inhibition (IC50) at 72 h in series [2] was over 100 µM. The “Ratio IC50” value in the series with K562 [8] came to 5.

As to `CC(=O)O[C@H](COC(=O)c1ccccc1)[C@H]1OC(=O)C=C[C@H]1OC(=O)C(c1ccccc1)c1ccccc1`, the half-inhibitory concentration (IC50) in the series on K562 [1] came out at 6.32 µM; with Jurkat, 14.5 µM; in the series on HL-60, 4.64 µM; with Raji [3] it was 14 µM; in the series with HeLa [4], 9.75 µM; in the series with MCF7 [6], 2.83 µM. The half-inhibitory concentration (IC50) in the series on MDA-MB-231 was determined as 17.6 µM; in the series on A549 [7] it was 11 µM. For the same molecule, the 50% inhibitory concentration (IC50) at 72 h in series [2] was over 100 µM. Besides, the “Ratio IC50” value with MCF7 [10] was over 9.

`COc1cccc(C(=O)O[C@@H]2C=CC(=O)O[C@@H]2[C@@H](COC(=O)c2ccccc2)OC(C)=O)c1`: the IC50 came to 1.59 µM with K562 [1]; 25.3 µM in the series with Jurkat; 1.7 µM in the series on HL-60; 25.2 µM in the series with Raji [3]; 9.43 µM in the series on HeLa [4]; 8.79 µM with MCF7 [6]. The IC50 amounted to 25.6 µM in the series on MDA-MB-231 and 12.1 µM with A549 [7]. In addition, in series [2], the IC50 at 72 h was over 100 µM. Besides, the “Ratio IC50” value with K562 [8] is reported as 5.
